How the values were obtained:
CDK2 (human) = CDK2 (human) (UniProt P24941); test: Enzyme Assay; conditions: concentration not given here
MAPK14 (human) = MAPK14 (human) (UniProt Q16539); test: Inhibition of MAPK14 Kinase Activity; conditions: concentration not given here
Sequence of MAPK14 (human) (Q16539 whole entry, looked up): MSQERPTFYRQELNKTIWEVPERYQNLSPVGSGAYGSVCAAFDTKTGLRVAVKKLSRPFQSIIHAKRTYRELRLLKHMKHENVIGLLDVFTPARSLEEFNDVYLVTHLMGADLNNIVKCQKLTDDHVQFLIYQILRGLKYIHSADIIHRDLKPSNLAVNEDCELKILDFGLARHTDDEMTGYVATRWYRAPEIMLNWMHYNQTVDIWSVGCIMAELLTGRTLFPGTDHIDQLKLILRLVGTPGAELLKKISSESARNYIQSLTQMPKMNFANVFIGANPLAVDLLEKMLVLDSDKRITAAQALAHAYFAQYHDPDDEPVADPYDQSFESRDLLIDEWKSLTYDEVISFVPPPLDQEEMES

For COc1ncc(C2=C(c3cn(CCCO)c4ncccc34)C(=O)NC2=O)c(OC)n1, the inhibition (CDK2 (human)) was 89% and the inhibition (MAPK14 (human)) was 2%.
Compound Cn1ccc(C2=C(c3cn(CCCO)c4ncccc34)C(=O)NC2=O)n1 has an inhibition (CDK2 (human)) of 44% and an inhibition (MAPK14 (human)) of 8%.
O=C1NC(=O)C(c2cn(CCCO)c3ncccc23)=C1c1cnccn1 showed an inhibition (CDK2 (human)) of 30% and an inhibition (MAPK14 (human)) of 31%.
